Experimental findings from patent publication US11147748B2, “Composition of temporary crown materials” (National Taipei University of Technology, priority 2019, dated 2021) are described below.

“Also recorded” adds a separate entry of the source. Where a name gives a salt, the structure may show the parent alone.

Data set [1] deals with fibroblasts (L929). Description: cytotoxicity test (MTT) with extract of the cured temporary crown material. The data set is classed as cell-based. The following applies: L929 co-cultured with material extract (0.2 g/ml) for 24 hours and 72 hours; plasticizer in crown material; FIG. 3. As to the method:
First, 2 grams (g) of the mixture of the powder reagent and the liquid reagent were taken to be cured and then immersed in 10 ml of MEM culture medium at a temperature of 37° C. for 24 hours. Afterwards, an extract of the mixture was taken, in which the extraction ratio was 0.2 g/ml.
Further, fibroblasts (L929) were seeded in the 96-well plates and incubated for 1 day.
Afterwards, the cell culture media were removed, and then a material extract containing 10% fetal bovine serum (FBS) after filtration and a culture medium without the material extract as the control were added, respectively, and then incubated for 24-72 hours. Subsequently, the culture media were removed again, and then phosphate buffered saline (PBS) washes were performed, followed by PBS removal. The serum-free culture medium was formulated as a reaction reagent of MTT ((3-(4,5-dimethylthiazol-2-yl)-2,5-diphenyltetrazolium bromide)), and the ratio of the culture medium to the MTT solution was 1 mg/ml. Each well plate was added with 50 μl of MTT reagent and then placed in the incubator. After 2 hours, the MTT reagent was removed, and 100 μl of antifreezing agent (DMSO) was added. The 96-well plate was shaken for 30 minutes using a rotary shaker. After the reaction was completed, the absorbance at a wavelength of 570 nm was measured by an ELISA reader. […]

The nature of data set [2]: three-point bending test (flexural strength, toughness) of the temporary crown material. The data set is classed as physicochemical. Conditions: for toughness (in words): FIG. 5. As to the method: First, the temporary crown material was filled into a stainless steel mold (a length of 25 millimeters (mm), a width of 2 mm and a height of 2 mm). After the temporary crown was completely cured, the crown was immersed in ultrapure water and placed in an oven at 37° C. for 24 hours. […] The flexural strength was calculated by the following formula: […]
wherein F was the force (N) under the maximum load; b was the average width (mm) of the test piece; h was the average thickness (mm) of the test piece; and l was the pitch (mm) between the two lower fulcrums.
In addition, the toughness of the temporary crown is the integral area under the stress-strain curve, in which stress is put on Y-axis and strain is put on X-axis. The unit of the toughness is […]

Data set [3] can be described thus: surface hardness test of temporary crowns (micro hardness tester). The following applies: plasticizer added to temporary crown; load 4.903 N for 10 seconds; FIG. 6. It is filed as physicochemical. As to the method: First, the temporary crown material was filled into a stainless steel mold (a diameter of 15 mm and a thickness of 1 mm). After the temporary crown was completely cured, the sample was immersed in ultrapure water and placed in an oven at 37° C. After 24 hours, the sample to be tested was taken out and placed in a micro hardness tester (HMV-2 series), and the load applied to the sample by the diamond indenter was 4.903 N for 10 seconds. Finally, the average length of the diagonal indentation on the surface of the sample was measured to calculate the surface hardness of the temporary crown. The calculation formula was: […]
wherein d is the length of the indentation, F is the load, and g is the gravity constant.

Where [4] appears, read: plasticizer added to temporary crown.
[5] abbreviates: temporary crown with 2% plasticizer.
Setting [6] is: temporary crown with 5% plasticizer.
[7] abbreviates: temporary crown with 10% plasticizer.
Where [8] appears, read: temporary crown with 15% plasticizer.

In the case of `CCCCOC(=O)CC(CC(=O)OCCCC)(OC(C)=O)C(=O)OCCCC` [ATBC, acetyl tributyl citrate], the “cytotoxicity / cell survival rate” value in data set [1] was “less than that of adding plasticizers DBP and TEC; also recorded: less toxicity to cells”. For the same compound, in data set [2] (plasticizer added to temporary crown, FIG. 4), the “flexural strength (in words)” value is listed as “can increase the flexural strength”. Besides, in data set [2] (setting [4]), the “toughness (in words)” value is recorded as “can increase the toughness”. In data set [2] (setting [5]), this compound registered an Elongation at break of 7.94%, a Flexural modulus of 2463.34 MPa, a Maximum stress of 85.24 MPa and a Strain of 7.72%. The Toughness in data set [2] (setting [5]) is given as 59.89 MPa. In data set [2] (setting [6]), this compound displayed an Elongation at break of 8.24%, a Flexural modulus of 2362.61 MPa, a Maximum stress of 81.98 MPa and a Strain of 7.82%. For the same compound, the Toughness in data set [2] (setting [6]) came to 57.21 MPa. Besides, in data set [2] (setting [7]), the Elongation at break stood at 6.50%, the Flexural modulus worked out at 2138.92 MPa, the Maximum stress is reported as 70.29 MPa and the Strain worked out at 6.48%. Also, in data set [2] (setting [7]), the Toughness is recorded as 28.07 MPa. In data set [2] (setting [8]), this compound gave an Elongation at break of 5.70%, a Flexural modulus of 1897.78 MPa, a Maximum stress of 55.59 MPa and a Strain of 5.71%. The same compound yielded a Toughness in data set [2] (setting [8]) of 17.39 MPa.
Turning to `CCOC(=O)CC(O)(CC(=O)OCC)C(=O)OCC` [TEC, triethyl citrate], the “cytotoxicity / cell survival rate” value in data set [1] was “not significantly improved”. The “toughness (in words)” value in data set [2] (setting [4]) is listed as “can increase the toughness”. In data set [2] (setting [5]), this compound yielded an Elongation at break of 10.43%, a Flexural modulus of 2173.29 MPa, a Maximum stress of 80.70 MPa and a Strain of 8.94%. Moreover, the Toughness in data set [2] (setting [5]) is 77.26 MPa. In data set [2] (setting [6]), this compound had an Elongation at break of 13.14%, a Flexural modulus of 2308.16 MPa, a Maximum stress of 83.40 MPa and a Strain of 9.20%. In addition, the Toughness in data set [2] (setting [6]) came to 115.80 MPa. Besides, in data set [2] (setting [7]), the Elongation at break worked out at 7.10%, the Flexural modulus was 2029.32 MPa, the Maximum stress turned out to be 69.93 MPa and the Strain came to 7.09%. Further, the Toughness in data set [2] (setting [7]) worked out at 30.88 MPa. In data set [2] (setting [8]), this compound registered an Elongation at break of 5.34%, a Flexural modulus of 1790.09 MPa, a Maximum stress of 46.31 MPa and a Strain of 5.36%. Further, the Toughness in data set [2] (setting [8]) is listed as 11.98 MPa.
With `CCCCOC(=O)c1ccccc1C(=O)OCCCC` [DBP, dibutyl phthalate, reference compound], in data set [2] (setting [5]), the Elongation at break worked out at 10.86%, the Flexural modulus is listed as 1215.08 MPa, the Maximum stress came out at 66.56 MPa and the Strain is given as 10.75%. This compound also returned a Toughness in data set [2] (setting [5]) of 28.74 MPa. Further, in data set [2] (setting [6]), the Elongation at break turned out to be 11.43%, the Flexural modulus came to 1199.73 MPa, the Maximum stress worked out at 62.75 MPa and the Strain was 10.75%. This compound also came in with a Toughness in data set [2] (setting [6]) of 31.14 MPa. In data set [2] (setting [7]), the Elongation at break amounted to 9.56%, the Flexural modulus stood at 1083.70 MPa, the Maximum stress is given as 54.11 MPa and the Strain turned out to be 9.75%. Moreover, in data set [2] (setting [7]), the Toughness is listed as 18.94 MPa. In data set [2] (setting [8]), this compound came in with an Elongation at break of 9.68%, a Flexural modulus of 997.11 MPa, a Maximum stress of 46.25 MPa and a Strain of 9.50%. Also, the Toughness in data set [2] (setting [8]) is given as 17.35 MPa. The “surface hardness (in words)” value in data set [3] is given as “contributes to the increase of surface hardness”.
